Here are results for one molecule from patent publication US20150328310A1, “METHODS AND COMPOSITIONS RELATING TO TREATMENT OF CANCER” (THE PENN STATE RESEARCH FOUNDATION, priority 2012, published 2015).

Structures are written as SMILES. Bounds are passed on as bounds.

For data set [1], the system named is panel of human cancer cell lines. Put plainly: Cell viability assay of ISC-4 in a panel of human cancer cell lines (72 hr). In kind it is cell-based. Particulars: human colon cancer cell lines with the exception of HT-29. The method, then: Cell lines are obtained from ATCC and cultured in ATCC-recommended media in a humidified incubator at 5% CO2 and 37° C. For cell viability assays, cells are seeded into 96-well black-walled plates at a concentration of 1×10^5 cells per mL in fresh media and in a volume of 100 μL per well. Cells are allowed to adhere overnight and are treated the next day as indicated. At endpoint, CellTiter-Glo (Promega) assays are performed according to the manufacturer's protocol, and the bioluminescent readout is recorded on an IVIS imaging system (Xenogen). For cell synchronization, cells are incubated with 200 ng/mL nocodazole for 16 hours prior to treatment. Chloroquine is obtained from Sigma. zVAD-fmk is obtained from Promega and used at a working concentration of 25 μM. ISC-4 is synthesized as described in Sharma, A. K., et al., J. of Med. Chem., 2008, 51(24):7820-7826.
The in vitro activity of ISC-4 is tested in a panel of human cancer cell lines to characterize its spectrum of activity.
The isogenic HCT116 cell lines indicate that ISC-4 activity is likely p53- and Bax-independent.

Another data set concerns RKO cells. The data set can be described thus: Sub-G1 content by flow cytometry, combination. In kind it is cell-based, human. Particulars: zVAD-fmk 25 μM. The method, then:
(§1) For sub-G1 DNA content analysis, cells are trypsinized at the indicated time points and fixed in 80% ethanol at 4° C. for a minimum of 30 minutes. Fixed cells are then stained with propidium iodide in the presence of RNase and analyzed on an Epics Elite flow cytometer (Beckman Coulter).

Data set [2] in a line: Serum chemistry profiles of mice. In kind it is in vivo. As to conditions: serum 2 days after last dose; ISC-4 3 mg/kg i.p., cetuximab 10 mg/kg i.v., twice a week for 2 weeks. As for the experimental part: Athymic female nude mice (Charles River Laboratories) are inoculated with 1×10^6 of 5-FU-resistant RKO or HT-29 cells in each rear flank as a 200 μL suspension of 1:1 Matrigel (BD):PBS. Treatment is initiated once tumors reached a mean volume of […], intraperitoneal or intravenous injections are given at a total volume of 200 μL in DMSO. […] Tissue is paraffin-embedded and sectioned. H&E staining (Daiko) and TUNEL staining (Millipore) are carried out according to the manufacturer's protocols. For serum chemistry assays, 1 mL of blood is harvested from anesthetized mice by terminal cardiac puncture of the left ventricle. For serum chemistry, 500 μL is placed into a microfuge tube and allowed to clot for 30 minutes at room temperature followed by centrifugation. Serum is removed, centrifuged again to remove any additional debris prior to analysis.
Serum was collected 2 days following the last dose.

Data set [3] relates to human colon cancer cell lines. The data set can be described thus: Cell cycle / sub-G1 DNA content analysis after ISC-4 treatment. In kind it is cell-based. The method, then:
as §1
The effect of ISC-4 treatment on cell cycle profiles of synchronous and asynchronous HCT116 (FIG. 1B) and HT-29 (FIG. 1C) cell lines is shown. […] Thus, ISC-4 has modest single agent activity against human colon cancer cells by causing cell death and a decrease in proliferation.

Take `[Se]=C=NCCCCc1ccccc1` [ISC-4]: the “Sensitivity to ISC-4 treatment” value in data set [1] is “moderately sensitive”. Besides, the “ISC-4-induced sub-G1 content on co-incubation with pan-caspase inhibitor zVAD-fmk” value in the data set on RKO cells was “significantly inhibited”. Besides, in data set [2], the ALT was determined as 29 ± 2 U/L, the AST is recorded as 221 ± 138 U/L, the “Alk. Phos. (alkaline phosphatase)” value is 35 ± 10 U/L and the “BUN (blood urea nitrogen)” value came to 22 ± 1 mg/dL. In data set [2], the Cl came out at 107 ± 3 mmol/L, the Creatinine was 0.1 ± 0 mg/dL, the Glucose was determined as 309 ± 8 mg/dL and the K is 4.8 ± .1 mmol/L. In addition, in data set [2], the “LDH (lactate dehydrogenase)” value turned out to be 1074 ± 531 U/L, the Na was 155 ± 2 mmol/L and the “T. Bil (total bilirubin)” value worked out at 0.65 ± 0.07 mg/dL. Besides, in data set [3] (colon cancer cell lines, 0, 1, 2, 4, 8, or 16 μM ISC-4, dose-dependent), the “Concentration at which ISC-4-induced sub-G1 content becomes apparent” value is over 8 µM. Also, in data set [3] (synchronized HCT116 and HT-29 cells), the Sub-G1 content entry is on record as “modest increase in sub-G1 content”.
